Read-outs that look alike come from different tables or passages of the source.
Columns and labels:
Type in all cases: cell-based, human
[1] = test system: p-ERK in AGS cells (KRAS G12D mutation); assay: Cell p-ERK assay (HTRF, Advance ERK phospho-T202/Y204 kit); conditions: AGS cells, 3 hours incubation with compound, HTRF, read-out: AGS p-ERK IC50
Method in brief: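 AGS cells (endogenous KRAS G12D) seeded at ~20000 cells/well overnight, then treated 3 h with 3.16-fold compound dilutions, 0.1% DMSO final. Lysates assayed for phospho-T202/Y204 ERK by HTRF after 4 h antibody incubation; inhibition vs DMSO and blank, IC50 by four-parameter fit.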

[2] = test system: AGS cells (KRAS G12D); assay: Cell proliferation inhibition assay, 3D, CellTiter-Glo 3D, AGS; conditions: AGS 3D sphere model, 5 days incubation
Method in brief: (§1)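 Spheroids (800 AsPC-1 or 400 AGS cells/well; RPMI-1640 or F-12K with 10% FBS) formed overnight, then were dosed on day 2 with a 3.16-fold series at 0.1% DMSO. After 5 days, viability was read by CellTiter-Glo 3D luminescence, and IC50 came from four-parameter fits of inhibition versus DMSO control and medium blank.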

[3] = test system: AsPC-1 cells (KRAS G12D mutation); assay: Cell proliferation inhibition assay, 3D, CellTiter-Glo 3D, AsPC-1; conditions: AsPC-1 3D sphere model, 5 days incubation
Method in brief: as §1

Compound: C[C@@H]1Oc2nc(-c3cc(N)cc4ccc(F)c(F)c34)c(F)c3nc(OCC4(CN5CCOCC5)CC4)nc(c23)N2C[C@H]3CC[C@H](N3)[C@@H]12 [Example Z719, 5,6-difluoro-4-((5S,5aS,6S,9R)-1-fluoro-S-methyl-12-((1-(morpholinomethyl)cyclopropyl)methoxy)-5a,6,7,8,9,10-hexahydro-5H-4-oxa-3,10a, 11,13,14-pentaaza-6,9-methanonaphtho[1,8-ab]heptalene-2-yl) naphthalen-2-amine]
- IC50 [1]: 1.16 nM
- IC50 [2]: 1.03 nM
- IC50 [3]: 3 nM

Compound: C#Cc1cccc2cccc(-c3nc4c5c(nc(OC[C@]67CCCN6CCC7=C)nc5c3F)N3C[C@H]5CC[C@H](N5)[C@H]3[C@H](C)O4)c12 [Example Z677, (5S,5aS,6S,9R)-2-(8-ethynylnaphthalen-1-yl)-1-fluoro-5-methyl-12-(((R)-1-methylenetetrahydro-1H-pyrrolizin-7a (5H)-yl)methoxy)-5a,6,7,8,9,10-hexahydro-5H-4-oxa-3,10a,11,13,14-pentaaza-6,9-methanonaphtho[1,8-ab]heptalene]
- IC50 ([1]; Homo sapiens): 185 nM
- IC50 ([2]; Homo sapiens, 120 h): 795 nM
- IC50 ([3]; Homo sapiens, ASPC1, 120 h): 981 nM

Compound: C#Cc1cccc2cc(O)cc(-c3nc4c5c(nc(OC[C@@]67CCCN6C[C@H](F)C7)nc5c3F)N3C[C@H]5CC[C@H](N5)[C@H]3[C@H](C)O4)c12 [Example Z384, 5-ethynyl-4-((5S,5aS,6S,9R)-1-fluoro-12-(((2R,7aS)-2-fluorotetrahydro-1H-pyrrolizin-7a (5H)-yl)methoxy)-5-methyl-5a,6,7,8,9,10-hexahydro-5H-4-oxa-3,10a, 11,13,14-pentaaza-6,9-methanonaphtho[1,8-ab]heptalen-2-yl) naphthalen-2-ol]
- IC50 ([1]; Homo sapiens): 0.65 nM
- IC50 ([2]; Homo sapiens, 120 h): 1.5 nM
- IC50 ([3]; Homo sapiens, ASPC1, 120 h): 7.34 nM

Compound: C#Cc1c(F)ccc2cccc(-c3nc4c5c(nc(OCC6(CN7CCC(=C)C7)CC6)nc5c3F)N3C[C@H]5CC[C@H](N5)[C@H]3[C@H](C)O4)c12 [Example Z698, (5S,5aS,6S,9R)-2-(8-Ethynyl-7-Fluoronaphthalen-1-Yl)-1-Fluoro-5-Methyl-12-((1-((3-Methylenepyrrolidin-1-Yl)Methyl)Cyclopropyl)Methoxy)-5a,6,7,8,9,10-Hexahydro-5H-4-Oxa-3,10a,11,13,14-Pentaaza-6,9-Methanonaphtho[1,8-Ab]Heptalene]
- IC50 ([1]; Homo sapiens): 21.7 nM
- IC50 ([2]; Homo sapiens, 120 h): 18.8 nM
- IC50 ([3]; Homo sapiens, ASPC1, 120 h): 49.3 nM

Compound: C#Cc1c(F)ccc2cccc(-c3nc4c5c(nc(OCC67CC(=C)CN6C[C@H]6C[C@H]67)nc5c3F)N3C[C@H]5CC[C@H](N5)[C@H]3[C@H](C)O4)c12 (stereo partly drawn) [Example Z606, (5S,5aS,6S,9R)-2-(8-ethynyl-7-fluoronaphthalen-1-yl)-1-fluoro-5-methyl-12-(((1aS,6bR)-5-methylenehexahydrocyclopropa[a]pyrrolizin-6a (4H)-yl)methoxy)-5a,6,7,8,9,10-hexahydro-5H-4-oxa-3,10a,11,13,14-pentaaza-6,9-methanonaphtho[1,8-ab]heptalene]
- IC50 ([1]; Homo sapiens): 874 nM
- IC50 ([2]; Homo sapiens, 120 h): 908 nM
- IC50 ([3]; Homo sapiens, ASPC1, 120 h): 802 nM

Compound: C#Cc1c(F)ccc2cccc(-c3nc4c5c(nc(OCC67CC(=C)CN6CC(=C)C7)nc5c3F)N3C[C@H]5CC[C@H](N5)[C@H]3CCO4)c12 [Example Z629]
- IC50 ([1]; Homo sapiens): 50 nM
- IC50 ([2]; Homo sapiens, 120 h): 51.7 nM
- IC50 ([3]; Homo sapiens, ASPC1, 120 h): 167 nM

Compound: Cc1cc(N)c(C)c(-c2nc3c4c(nc(OCC5(CN6CCOCC6)CC5)nc4c2F)N2C[C@H]4CC[C@H](N4)[C@H]2[C@H](C)O3)c1C1CC1 [Example Z717, 4-cyclopropyl-3-((5S,5aS,6S,9R)-1-fluoro-5-methyl-12-((1-(morpholinomethyl)cyclopropyl)methoxy)-5a,6,7,8,9,10-hexahydro-5H-4-oxa-3,10a, 11,13,14-pentaaza-6,9-methanonaphtho[1,8-ab]heptalen-2-yl)-2,5-dimethylaniline]
- IC50 ([1]; Homo sapiens): 14.8 nM
- IC50 ([2]; Homo sapiens, 120 h): 29.1 nM
- IC50 ([3]; Homo sapiens, ASPC1, 120 h): 50.2 nM
